From patent US12338256B2, “Aza-tetracyclic oxazepine compounds and uses thereof” (Genentech, Inc., priority 2022, dated 2025)

Key:
[1] = tested on: H1975 (KRAS wild type human lung adenocarcinoma cell line); test: KRAS 3D-Cell Proliferation Assay, H1975 (Example 503); format: cell-based; conditions: Homo sapiens, NCI-H1975, 168 h, H1975 3D culture, 7 days, CellTiter-Glo 3D; read-out: Prolif H1975 3D ATP IC50
In short: (§1)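 IC50 values derive from 4-parameter Hill fits of normalized luminescence, where DMSO sets 0% and 1 μM staurosporine 100% inhibition. 3D cultures in RPMI-1640 with 10% fetal bovine serum were exposed to compound for 7 days before CellTiter-Glo 3D lysis.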

[2] = tested on: HPAC (homozygous mutant KRAS G12D human pancreatic cell line); test: KRAS 3D-Cell Proliferation Assay, HPAC (Example 503); format: cell-based; conditions: Homo sapiens, HPAC, 168 h, HPAC 3D culture, 7 days, CellTiter-Glo 3D; read-out: Prolif HPAC 3D ATP IC50
In short: as §1

Question: How did the IC50 [1] turn out when `Cc1c(F)c(N)cc(-c2nc3c4c(nc(OC[C@@H]5CC[C@H]6COCCN65)nc4c2F)N2C[C@H]4CC[C@H](N4)[C@H]2[C@H](C)O3)c1Cl` [Compound 111, 4-Chloro-2-fluoro-5-((5S,5aS,6S,9R)-1-fluoro-12-(((6S,8aS)-hexahydro-1H-pyrrolo[2,1-c][1,4]oxazin-6-yl)methoxy)-5-methyl-5a,6,7,8,9,10-hexahydro-5H-4-oxa-3,10a,11,13,14-pentaaza-6,9-methanonaphtho[1,8-ab]heptalen-2-yl)-3-methylaniline] was run?
Answer: 1840 nM

Question: And the IC50 [2]?
Answer: 14.1 nM

Question: Which IC50 [1] does the source give for `Cc1c(F)c(N)cc(-c2nc3c4c(nc(OC[C@@H]5CC[C@H]6COCCN65)nc4c2F)N2C[C@H]4CC[C@H](N4)[C@H]2[C@H](C)O3)c1CC(F)(F)F` [Compound 113, 2-fluoro-5-((5S,5aS,6S,9R)-1-fluoro-12-(((6S,8aS)-hexahydro-1H-pyrrolo[2,1-c][1,4]oxazin-6-yl)methoxy)-5-methyl-5a,6,7,8,9,10-hexahydro-5H-4-oxa-3,10a,11,13,14-pentaaza-6,9-methanonaphtho[1,8-ab]heptalen-2-yl)-3-methyl-4-(2,2,2-trifluoroethyl)aniline] here?
Answer: 1170 nM

Question: And the IC50 [2]?
Answer: 2.91 nM

Question: With `C[C@@H]1Oc2nc(-c3cccc4ccc(N)nc34)c(F)c3nc(OC[C@@]45CCCN4C[C@H](F)C5)nc(c23)N2C[C@H]3CC[C@H](N3)[C@@H]12` [Compound 114, 8-((5S,5aS,6S,9R)-1-Fluoro-12-(((2R,7aS)-2-fluorotetrahydro-1H-pyrrolizin-7a(5H)-yl)methoxy)-5-methyl-5a,6,7,8,9,10-hexahydro-5H-4-oxa-3,10a,11,13,14-pentaaza-6,9-methanonaphtho[1,8-ab]heptalen-2-yl)quinolin-2-amine] as the compound, how does the IC50 [1] read?
Answer: 20000 nM

Question: What about the IC50 [2] of the same compound?
Answer: 2000 nM

Question: `C[C@@H]1Oc2nc(-c3cc(N)cc(C(F)(F)F)c3C(F)(F)F)c(F)c3nc(OC[C@@]45CCCN4C[C@H](F)C5)nc(c23)N2C[C@H]3CC[C@H](N3)[C@@H]12` [Compound 115, 3-((5S,5aS,6S,9R)-1-fluoro-12-(((2R,7aS)-2-fluorotetrahydro-1H-pyrrolizin-7a(5H)-yl)methoxy)-5-methyl-5a,6,7,8,9,10-hexahydro-5H-4-oxa-3,10a,11,13,14-pentaaza-6,9-methanonaphtho[1,8-ab]heptalen-2-yl)-4,5-bis(trifluoromethyl)aniline] was tested. Which IC50 [1] did it give?
Answer: 2710 nM

Question: What about the IC50 [2] of the same compound?
Answer: 15.7 nM

Question: Which IC50 [1] does the source give for `C[C@@H]1Oc2nc(-c3cccc4sc(N)nc34)c(F)c3nc(OC[C@@]45CCCN4C[C@H](F)C5)nc(c23)N2C[C@H]3CC[C@H](N3)[C@@H]12` [Compound 116, 4-((5S,5aS,6S,9R)-1-fluoro-12-(((2R,7aS)-2-fluorotetrahydro-1H-pyrrolizin-7a(5H)-yl)methoxy)-5-methyl-5a,6,7,8,9,10-hexahydro-5H-4-oxa-3,10a,11,13,14-pentaaza-6,9-methanonaphtho[1,8-ab]heptalen-2-yl)benzo[d]thiazol-2-amine] here?
Answer: 20000 nM

Question: And the IC50 [2]?
Answer: 513 nM

Question: `C[C@@H]1Oc2nc(-c3cc(N)ccc3C(C)(C)C)c(F)c3nc(OC[C@@]45CCCN4C[C@H](F)C5)nc(c23)N2C[C@H]3CC[C@H](N3)[C@@H]12` [Compound 117, 4-(tert-butyl)-3-((5S,5aS,6S,9R)-1-fluoro-12-(((2R,7aS)-2-fluorotetrahydro-1H-pyrrolizin-7a(5H)-yl)methoxy)-5-methyl-5a,6,7,8,9,10-hexahydro-5H-4-oxa-3,10a,11,13,14-pentaaza-6,9-methanonaphtho[1,8-ab]heptalen-2-yl)aniline] was tested. Which IC50 [1] did it give?
Answer: 4740 nM

Question: What about the IC50 [2] of the same compound?
Answer: 148 nM

Question: What does the source list for `Cc1c(F)c(N)cc(-c2nc3c4c(nc(OC[C@@H]5CCC6C=C(F)CCN65)nc4c2F)N2C[C@H]4CC[C@H](N4)[C@H]2[C@H](C)O3)c1C(F)(F)F` (stereo partly drawn) [Compound 120, 2-fluoro-5-((5S,5aS,6S,9R)-1-fluoro-12-(((3S)-7-fluoro-1,2,3,5,6,8a-hexahydroindolizin-3-yl)methoxy)-5-methyl-5a,6,7,8,9,10-hexahydro-5H-4-oxa-3,10a,11,13,14-pentaaza-6,9-methanonaphtho[1,8-ab]heptalen-2-yl)-3-methyl-4-(trifluoromethyl)aniline]?
Answer: IC50 [1]: 1530 nM; IC50 [2]: 10.6 nM
